Measured values: patent publication US7745401B2, “Antifungal peptides and methods of use thereof” (The Board of Regents of the University of Oklahoma, priority 2005, dated 2010)
Entries after “also recorded” stand apart in the source; their conditions may differ. Where a SMILES comes first, the peptide text is derived from it.

Legend:
[1] = test system: Candida albicans; type: cell-based
Protocol: (§1) Isolates used in this study included Candida albicans (ATCC 28367), three fluconazole sensitive mucosal isolates of C. albicans, designated A-22, A-111 and A-155, three fluconazole resistant mucosal isolates of C. albicans designated A-46, A-5, and A-20, and a blood isolate of C. albicans designated WDO. Isolates were stored frozen at −70° C. and streaked onto Sabouraud Dextrose Agar (Sigma, St. Louis, Mo.) plates and maintained on plates at 4° C., with subculturing onto new plates approximately every 10 days for the duration of the studies. Fluconazole resistance was evaluated. Three clinical isolates of C. glabrata, two clinical isolates of C. dubliniensis, and single isolate each of C. krusei, C. guilliermondii, C. parapsilosis, C. pseudotropicalis and C. tropicalis and two isolates of Saccharomyces cerevisiae were also used in this study and were maintained on Sabouraud Dextrose agar plates at 4° C. A single yeast colony was cultured overnight at 33° C. in 1% phytone peptone broth (Becton Dickinson, Sparks Md.) with 0.1% D-glucose (Sigma).
Stock solutions of all peptides were made up at concentrations of 1 mg/ml in sterile endotoxin-free water for irrigation (Baxter, Deerfield, Ill.). Subsequent dilutions were all made in tryptone saline pH 5.5 (Shafer et al., Infect Immun, 1984). An aliquot (100 μl) of an overnight culture of a single colony grown at 33° C. in 1% phytone peptone broth with 0.1% glucose was subcultured in 5 ml of 1% phytone peptone broth with 0.1% glucose and incubated in a shaking water bath (80 oscillations per min, Precision, Winchester, Va.) for 90 min at 33° C. to yield a logarithmic culture. […] The optical density was read and the culture adjusted to 500 blastospores/100 μl in tryptone saline pH 5.5 (Shafer et al., Infect Immun, 1984). To 100 μl of the organism suspension in a 96 well sterile polystyrene microtiter plate (Becton Dickinson, Franklin Lakes, N.J.) was added 100 μl of the peptide (final concentrations 400 μg/ml and 200 μg/ml) or 100 μl of tryptone saline. The latter served as a control. The microtiter plate was incubated at 37° C. for 4 hr and 100 μl of the contents from each well was plated on Sabouraud Dextrose agar plates and incubated at 37° C. overnight. The colony forming units (cfu) were counted and the fungicidal activity was expressed as percent killed and calculated according to the following equation: [(control cfu−test cfu)/control cfu]×100=% killed. Control cfu is indicated by the number of colonies present after […] of incubation in tryptone saline alone in the absence of peptide. Test cfu is determined by counting the number of colonies present after incubation in tryptone saline containing the peptide. Each experimental point was performed in triplicate.
C. albicans (ATCC 28367) was used to standardize the in vitro killing assay. We explored the optimal growth conditions (temperature and time, 25° C. for 5 h and 33° C. for 90 min), numbers of blastospores per well (200, 400, 500, 600, 800, and 1000 cfu), range of peptide concentrations (750, 500, 400, 200 and 100 μg/ml) and the contact time between peptide and Candida (1, 2 and 4 hr) for killing to occur. […] The 90 minute incubation was more convenient technically and was therefore employed routinely. The optimum numbers of cfu per well was determined to be 500 and an incubation time of 4 hr at 37° C. between Candida and peptide was required to obtain optimal killing.

[2] = test system: C. tropicalis; assay: In vitro candidacidal assay, C. tropicalis; type: cell-based; conditions: 400 μg/ml (150 μM)
Protocol: as §1
(§2) Stock solutions of all peptides were made up at concentrations of 1 mg/ml in sterile endotoxin-free water for irrigation (Baxter, Deerfield, Ill.). Subsequent dilutions were all made in tryptone saline pH 5.5 (Shafer et al., Infect Immun, 1984). […] The optical density was read and the culture adjusted to 500 blastospores/100 μl in tryptone saline pH 5.5 (Shafer et al., Infect Immun, 1984). […] The colony forming units (cfu) were counted and the fungicidal activity was expressed as percent killed and calculated according to the following equation: [(control cfu−test cfu)/control cfu]×100=% killed. […] Test cfu is determined by counting the number of colonies present after incubation in tryptone saline containing the peptide. […]

[3] = test system: C. dubliniensis; assay: In vitro candidacidal assay, C. dubliniensis; type: cell-based; conditions: two isolates; 400 μg/ml (150 μM)
Protocol: as §1, §2

[4] = test system: C. glabrata; assay: In vitro candidacidal assay, C. glabrata; type: cell-based; conditions: one isolate of three; 400 μg/ml (150 μM)
Protocol: as §1, §2

[5] = test system: C. albicans (fluconazole sensitive isolate); assay: FUN-1 vital dye yeast viability, confocal microscopy, C. albicans; type: cell-based, Candida albicans; conditions: 400 μg/ml, 37° C. for 2 hr
Protocol: Yeast viability was also assessed using the FUN-1 Live/Dead Yeast Viability Kit (Molecular Probes, Eugene, Oreg.). The methodology employed was essentially according to the protocol provided by the vendor for use with fluorescent microscopy. Briefly, yeast cultures were prepared exactly as stated above. C. glabrata, C. pseudotropicalis, C. albicans (fluconazole sensitive isolate) and S. cerevisiae (5×10^5 cfu in 100 μl of tryptone saline) were incubated (37° C. for 2 hr) in the absence or presence of peptide (CAP37(20-44)nat and CAP37(20-44)ser26/42) at a final concentration of 400 μg/ml. At the end of the incubation period, the samples were transferred to microcentrifuge tubes and centrifuged (10,000×g for 3 min at room temperature). The supernatant was removed and the pellet resuspended in 25 μl of GH solution (2% D-glucose containing 10 mM Na-HEPES, pH 7.2) as described in the technical data sheet provided by the vendor. A working solution of the FUN-1 reagent (100 μl of 10 μM) was prepared from 10 mM stock solution and 25 μl (final concentration 5 μM) added to the yeast and incubated at room temperature for 30 min. A sample (10 μl) was placed on a microscope slide and staining observed under a Leica TCS NT confocal microscope using Ar-488 and Kr-568 Lasers and 63x Plan APO 1.2 NA water immersion objective. Images were scanned and analyzed using the Leica TCS software.

[6] = test system: Salmonella typhimurium, Escherichia coli, and Pseudomonas aeruginosa; conditions: Gram negative organisms; cited from earlier work
[7] = test system: E. coli lipopolysaccharide (LPS); conditions: conscious rat; cited from earlier work

CC[C@H](C)[C@H](NC(=O)[C@H](CC(C)C)NC(=O)[C@H](C)NC(=O)CNC(=O)CNC(=O)[C@H](CS)NC(=O)[C@H](Cc1ccccc1)NC(=O)[C@H](Cc1c[nH]cn1)NC(=O)[C@H](CCCNC(=N)N)NC(=O)CNC(=O)[C@H](CCC(N)=O)NC(=O)[C@@H](N)CC(N)=O)C(=O)N[C@@H](Cc1c[nH]cn1)C(=O)N[C@@H](C)C(=O)N[C@@H](CCCNC(=N)N)C(=O)N[C@@H](Cc1ccccc1)C(=O)N[C@H](C(=O)N[C@@H](CCSC)C(=O)N[C@H](C(=O)N[C@@H](C)C(=O)N[C@@H](C)C(=O)N[C@@H](CO)C(=O)N[C@@H](CS)C(=O)N[C@@H](Cc1ccccc1)C(=O)N[C@@H](CCC(N)=O)C(=O)O)[C@@H](C)O)C(C)C [CAP37(20-44)nat, NQGRHFCGGALIHARFVMTAASCFQ] (H-NQGRHFCGGALIHARFVMTAASCFQ-OH; N-terminus and C-terminus assumed)
killing [1]: > 75%
killing with varying peptide concentrations ([1]; C. albicans ATCC 28367, 750, 500, 400, 200 and 100 μg/ml): Dose dependent killing
killing of blood isolate of Candida ([1]; blood isolate of C. albicans, 400 μg/ml (150 μM)): killed
peptide concentration required for activity ([1]; fluconazole resistant isolate A-46): 400 µg/mL
activity at the lower concentration ([1]; fluconazole resistant isolates A-5 and A-20, 200 μg/ml or 75 μM): significant activity
activity against C. albicans ([1]; in vitro killing efficacy): significant activity
fungicidal or fungistatic effect ([1]; isolates A-5, A-20, A-46 and A-155, viable colony counts versus starting inoculum): fungicidal rather than fungistatic
activity against fluconazole resistant isolates ([1]; isolates A-5 and A-20): highly active
activity against fluconazole sensitive isolates ([1]; isolates A-155, A-22 and A-111, 400 μg/ml): strongly active
activity against C. tropicalis [2]: killed
activity against C. dubliniensis [3]: effective against both isolates of C. dubliniensis and one isolate of C. glabrata, although to a lesser extent
activity against C. glabrata [4]: effective against both isolates of C. dubliniensis and one isolate of C. glabrata, although to a lesser extent
blastoconidia stained green or green-yellow (dead) [5]: 70-80%
bactericidal activity [6]: potent bactericidal activity; also recorded: mimicked the antimicrobial activity of the native molecule
efficacy against lethal effects of LPS [7]: attenuating the lethal effects
